# Results taken from BindingDB's records for doi:10.7270/Q2WQ028B (Vanderbilt Screening Center For Gpcrs, Ion Channels and …, 2010).
# Target: T1, G protein-activated inward rectifier potassium channel 1 (Rattus norvegicus, UniProt P63251)
# T1 sequence (P63251 whole entry): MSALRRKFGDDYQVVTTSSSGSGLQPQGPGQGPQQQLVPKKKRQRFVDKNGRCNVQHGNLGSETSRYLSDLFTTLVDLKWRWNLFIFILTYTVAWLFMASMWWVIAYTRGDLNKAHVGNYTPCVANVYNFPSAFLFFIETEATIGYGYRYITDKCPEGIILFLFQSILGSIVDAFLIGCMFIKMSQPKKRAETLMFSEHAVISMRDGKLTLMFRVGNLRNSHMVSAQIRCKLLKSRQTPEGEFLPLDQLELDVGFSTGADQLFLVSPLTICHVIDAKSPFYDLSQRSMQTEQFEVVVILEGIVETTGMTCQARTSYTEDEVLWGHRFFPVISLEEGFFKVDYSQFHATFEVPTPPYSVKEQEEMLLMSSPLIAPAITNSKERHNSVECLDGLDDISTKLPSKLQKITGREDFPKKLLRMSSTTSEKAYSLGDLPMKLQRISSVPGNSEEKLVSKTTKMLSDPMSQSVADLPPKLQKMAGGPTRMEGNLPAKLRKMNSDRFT
# Test: alpha2C agonist potency with rauwolscine blockade, dose response, mechanism study for alpha2C adrenergic receptor project, cell-based, thallium flux (AID 435016)
# Details: inactive by the depositor's call
compound,measurement,value
"O=c1c(-c2ccc3c(c2)OCCO3)c(C(F)(F)F)oc2cc(O)cc(O)c12 [3-(2,3-dihydro-1,4-benzodioxin-6-yl)-5,7-bis(oxidanyl)-2-(trifluoromethyl)chromen-4-one]",EC50,12.6 µM
"CCSc1nnc(NC(=O)NC(CC)(C(F)(F)F)C(F)(F)F)s1 [1-(5-ethylsulfanyl-1,3,4-thiadiazol-2-yl)-3-[1,1,1-trifluoro-2-(trifluoromethyl)butan-2-yl]urea]",EC50,2.29 µM
CCOC(=O)c1ccc(NC(=O)NC(C)C2CCCO2)cc1 (stereo not drawn),EC50,41.4 µM
